# Source: patent US11000033B2, “Ketone or oxime compound, and herbicide” (NISSAN CHEMICAL CORPORATION, priority 2014, dated 2021)
# Tests used:
# Format in all cases: in vivo
# Abutilon theophrasti [1] = assay: Test Example 5: herbicidal effect by foliage application, plastic box (symbol M); settings: 3 weeks after application
# Summary of the method: (§1)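 Leaf-applied emulsion, water-diluted to a preset herbicide dose, on two-week-old seedlings raised in a 25° C. to 30° C. greenhouse; injury rated at 3 weeks using earlier criteria.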
# [2] = system: Echinochloa oryzacola Vasing.; assay: Test Example 2: herbicidal activity, application during weed generation in submerged conditions (symbol A); settings: Table 23, grade 0-5 by criteria of Test Example 1
# Summary of the method: (§2)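 Each pot contained alluvial soil under 4 cm of water with seeds of all three weeds sown together. Following growth at 25° C. to 30° C. to the one- to two-leaf stage, the floodwater received diluted emulsion at a predetermined amount; visual assessment followed at 3 weeks.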
# Avena fatua = assay: Test Example 5: herbicidal effect by foliage application, plastic box (symbol I); settings: 3 weeks after application
# Summary of the method: as §1
# [3] = system: Echinochloa crus-galli var. crus-galli; assay: Test Example 3: herbicidal effect by foliage application, Wagner pot (symbol H); settings: for H (Echinochloa crus-galli var. crus-galli) herbicidal effect grade: Table 24
# Summary of the method: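 Seeds sown in alluvial soil kept under 0.1–0.5 cm water, greenhouse 25–30 °C; 14 d growth. Leaves treated by small sprayer with water-diluted emulsion at a predetermined rate. Effect graded by set scale, 3 weeks.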
# Digitaria ciliaris = assay: Test Example 4: herbicidal effect by soil treatment (symbol F)
# Summary of the method: (§3)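 Seeds were sown in sterilized diluvial soil, covered with about 1.5 cm of soil, and the soil surface was sprayed with a water-diluted emulsion of the compound at a predetermined rate. Plants grew in a greenhouse at 25° C. to 30° C.; effects were scored visually 3 weeks after application.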
# Lolium multiflorum Lam. = assay: Test Example 4: herbicidal effect by soil treatment (symbol K)
# Summary of the method: as §3
# beet = assay: Test Example 4: effect on crop by soil treatment (symbol f)
# Summary of the method: (§4)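 Plants grew in a 25° C. to 30° C. greenhouse after spot-sowing of seeds, including beet, rapeseed, wheat and rice, into sterilized diluvial soil under roughly 1.5 cm of cover soil.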
# Stellaria media = assay: Test Example 5: herbicidal effect by foliage application, plastic box (symbol P); settings: 3 weeks after application
# Summary of the method: as §1
# Abutilon theophrasti [4] = assay: Test Example 4: herbicidal effect by soil treatment (symbol M)
# Summary of the method: as §3
# Chenopodium album [5] = assay: Test Example 4: herbicidal effect by soil treatment (symbol O); settings: application herbicide amount 320 g/ha
# Summary of the method: as §3
# Setaria viridis = assay: Test Example 4: herbicidal effect by soil treatment (symbol G)
# Summary of the method: as §3
# Apera spica-venti [6] = assay: Test Example 5: herbicidal effect by foliage application, plastic box (symbol L); settings: 3 weeks after application
# Summary of the method: as §1
# soybean = assay: Test Example 4: effect on crop by soil treatment (symbol d)
# Summary of the method: as §4
# Veronica persica = assay: Test Example 5: herbicidal effect by foliage application, plastic box (symbol R); settings: 3 weeks after application
# Summary of the method: as §1
# Chenopodium album [7] = assay: Test Example 5: herbicidal effect by foliage application, plastic box (symbol O); settings: 3 weeks after application
# Summary of the method: as §1
# Galium spurium = assay: Test Example 4: herbicidal effect by soil treatment (symbol Q)
# Summary of the method: as §3
# rice plant = assay: Test Example 5: effect on crop by foliage application, plastic box (symbol b); settings: 3 weeks after application
# Summary of the method: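 A greenhouse held between 25° C. and 30° C. was used to grow plants sown spot-wise, beneath ~1.5 cm of soil, in boxes of sterilized diluvial soil.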
# Monochoria vaginalis = assay: Test Example 2: herbicidal activity, application during weed generation in submerged conditions (symbol C); settings: Table 23, grade 0-5 by criteria of Test Example 1
# Summary of the method: as §2
# Apera spica-venti [8] = assay: Test Example 4: herbicidal effect by soil treatment (symbol L)
# Summary of the method: as §3
# [9] = application herbicide amount 320 g/ha
# [10] = application herbicide amount 269 g/ha
structure (smiles),measurement,setting,value
CON=C(CC1CC(OC(=O)N2CCOCC2)=C(c2c(C)cc(C)cc2OC)C1=O)C1CC1 (mixture of isomers) [13-005],"M: Abutilon theophrasti, herbicidal effect grade",Abutilon theophrasti [1]; 320 g/ha,0 (Herbicidal ratio of 5% or lower (almost no effect))
same,"Herbicidal effect grade, A: Echinochloa oryzacola Vasing.",[2]; [9],5 (Herbicidal ratio of 90% or more (almost completely withered))
same,"I: Avena fatua, herbicidal effect grade",Avena fatua; 320 g/ha,5 (Herbicidal ratio of 90% or more (almost completely withered))
same,H (Echinochloa crus-galli var. crus-galli) herbicidal effect grade,[3]; [9],5 (Herbicidal ratio of 90% or more (almost completely withered))
same,"F: Digitaria ciliaris, herbicidal effect grade",Digitaria ciliaris; [9],4 (Herbicidal ratio of 70% or higher and lower than 90%)
same,"K: Lolium multiflorum Lam., herbicidal effect grade",Lolium multiflorum Lam.; [9],5 (Herbicidal ratio of 90% or more (almost completely withered))
same,"f: beet, effect on crop grade",beet; [9],0 (Herbicidal ratio of 5% or lower (almost no effect))
same,"P: Stellaria media, herbicidal effect grade",Stellaria media; 320 g/ha,0 (Herbicidal ratio of 5% or lower (almost no effect))
same,"M: Abutilon theophrasti, herbicidal effect grade",Abutilon theophrasti [4]; [9],0 (Herbicidal ratio of 5% or lower (almost no effect))
same,"O: Chenopodium album, herbicidal effect grade",Chenopodium album [5],0 (Herbicidal ratio of 5% or lower (almost no effect))
same,"G: Setaria viridis, herbicidal effect grade",Setaria viridis; [9],0 (Herbicidal ratio of 5% or lower (almost no effect))
same,"L: Apera spica-venti, herbicidal effect grade",Apera spica-venti [6]; 320 g/ha,5 (Herbicidal ratio of 90% or more (almost completely withered))
same,"d: soybean, effect on crop grade",soybean; [9],0 (Herbicidal ratio of 5% or lower (almost no effect))
same,"R: Veronica persica, herbicidal effect grade",Veronica persica; 320 g/ha,0 (Herbicidal ratio of 5% or lower (almost no effect))
same,"O: Chenopodium album, herbicidal effect grade",Chenopodium album [7]; 320 g/ha,0 (Herbicidal ratio of 5% or lower (almost no effect))
same,"Q: Galium spurium, herbicidal effect grade",Galium spurium; [9],0 (Herbicidal ratio of 5% or lower (almost no effect))
same,"b: directly sowed rice plant, effect on crop grade",rice plant; 320 g/ha,5 (Herbicidal ratio of 90% or more (almost completely withered))
CON=C(C)CC1CC(OC(=O)N(C)C)=C(c2c(C)cc(C)cc2C)C1=O (centres unmarked) [1-108],"M: Abutilon theophrasti, herbicidal effect (criteria 0-5)",Abutilon theophrasti [1]; 320 g/ha,4 (Herbicidal ratio of 70% or higher and lower than 90%)
same,"Herbicidal effect grade, A: Echinochloa oryzacola Vasing.",[2]; [9],5 (Herbicidal ratio of 90% or more (almost completely withered))
same,"I: Avena fatua, herbicidal effect (criteria 0-5)",Avena fatua; 320 g/ha,5 (Herbicidal ratio of 90% or more (almost completely withered))
same,"herbicidal effect on H (Echinochloa crus-galli var. crus-galli), grade 0-5",[3]; [9],5 (Herbicidal ratio of 90% or more (almost completely withered))
same,"F: Digitaria ciliaris, herbicidal effect grade",Digitaria ciliaris; 320 g/ha,5 (Herbicidal ratio of 90% or more (almost completely withered))
same,"K: Lolium multiflorum Lam., herbicidal effect grade",Lolium multiflorum Lam.; 320 g/ha,5 (Herbicidal ratio of 90% or more (almost completely withered))
same,"f: beet, effect grade on crop",beet; 320 g/ha,0 (Herbicidal ratio of 5% or lower (almost no effect))
same,"P: Stellaria media, herbicidal effect (criteria 0-5)",Stellaria media; 320 g/ha,3 (Herbicidal ratio of 40% or higher and lower than 70%)
same,"M: Abutilon theophrasti, herbicidal effect grade",Abutilon theophrasti [4]; 320 g/ha,4 (Herbicidal ratio of 70% or higher and lower than 90%)
same,"G: Setaria viridis, herbicidal effect grade",Setaria viridis; 320 g/ha,5 (Herbicidal ratio of 90% or more (almost completely withered))
same,"L: Apera spica-venti, herbicidal effect (criteria 0-5)",Apera spica-venti [6]; 320 g/ha,5 (Herbicidal ratio of 90% or more (almost completely withered))
same,"d: soybean, effect grade on crop",soybean; 320 g/ha,0 (Herbicidal ratio of 5% or lower (almost no effect))
same,"R: Veronica persica, herbicidal effect (criteria 0-5)",Veronica persica; 320 g/ha,1 (Herbicidal ratio of 5% or higher and lower than 20%)
same,"O: Chenopodium album, herbicidal effect (criteria 0-5)",Chenopodium album [7]; 320 g/ha,0 (Herbicidal ratio of 5% or lower (almost no effect))
same,"Herbicidal effect grade, C: Monochoria vaginalis",Monochoria vaginalis; [9],1 (Herbicidal ratio of 5% or higher and lower than 20%)
same,"L: Apera spica-venti, herbicidal effect grade",Apera spica-venti [8]; 320 g/ha,5 (Herbicidal ratio of 90% or more (almost completely withered))
same,"Q: Galium spurium, herbicidal effect grade",Galium spurium; 320 g/ha,0 (Herbicidal ratio of 5% or lower (almost no effect))
same,"b: directly sowed rice plant, effect on crop (criteria 0-5)",rice plant; 320 g/ha,5 (Herbicidal ratio of 90% or more (almost completely withered))
CC(=O)C(C)C1CC(O)=C(c2c(C)cc(C)cc2C)C1=O (centres unmarked) [2-005],"M: Abutilon theophrasti, herbicidal effect grade",Abutilon theophrasti [1]; 269 g/ha,0 (Herbicidal ratio of 5% or lower (almost no effect))
same,"Herbicidal effect grade, A: Echinochloa oryzacola Vasing.",[2]; [10],3 (Herbicidal ratio of 40% or higher and lower than 70%)
same,"I: Avena fatua, herbicidal effect grade",Avena fatua; 269 g/ha,3 (Herbicidal ratio of 40% or higher and lower than 70%)
same,"herbicidal effect on H (Echinochloa crus-galli var. crus-galli), grade 0-5",[3]; [10],5 (Herbicidal ratio of 90% or more (almost completely withered))
same,"F: Digitaria ciliaris, herbicidal effect grade",Digitaria ciliaris; [10],5 (Herbicidal ratio of 90% or more (almost completely withered))
same,"K: Lolium multiflorum Lam., herbicidal effect grade",Lolium multiflorum Lam.; [10],5 (Herbicidal ratio of 90% or more (almost completely withered))
same,"f: beet, effect on crop grade",beet; [10],0 (Herbicidal ratio of 5% or lower (almost no effect))
same,"P: Stellaria media, herbicidal effect grade",Stellaria media; 269 g/ha,0 (Herbicidal ratio of 5% or lower (almost no effect))
same,"M: Abutilon theophrasti, herbicidal effect grade",Abutilon theophrasti [4]; [10],0 (Herbicidal ratio of 5% or lower (almost no effect))
same,"G: Setaria viridis, herbicidal effect grade",Setaria viridis; [10],4 (Herbicidal ratio of 70% or higher and lower than 90%)
same,"L: Apera spica-venti, herbicidal effect grade",Apera spica-venti [6]; 269 g/ha,3 (Herbicidal ratio of 40% or higher and lower than 70%)
same,"d: soybean, effect on crop grade",soybean; [10],0 (Herbicidal ratio of 5% or lower (almost no effect))
same,"R: Veronica persica, herbicidal effect grade",Veronica persica; 269 g/ha,0 (Herbicidal ratio of 5% or lower (almost no effect))
same,"O: Chenopodium album, herbicidal effect grade",Chenopodium album [7]; 269 g/ha,0 (Herbicidal ratio of 5% or lower (almost no effect))
same,"Herbicidal effect grade, C: Monochoria vaginalis",Monochoria vaginalis; [10],0 (Herbicidal ratio of 5% or lower (almost no effect))
same,"L: Apera spica-venti, herbicidal effect grade",Apera spica-venti [8]; [10],1 (Herbicidal ratio of 5% or higher and lower than 20%)
same,"Q: Galium spurium, herbicidal effect grade",Galium spurium; [10],0 (Herbicidal ratio of 5% or lower (almost no effect))
same,"b: directly sowed rice plant, effect on crop grade",rice plant; 269 g/ha,5 (Herbicidal ratio of 90% or more (almost completely withered))
Cc1cc(Br)cc(C)c1C1=C(O)CC(CC(=NOCC(F)(F)F)C2CC2)C1=O (centres unmarked) [9-009],"M: Abutilon theophrasti, herbicidal effect grade",Abutilon theophrasti [1]; 320 g/ha,0 (Herbicidal ratio of 5% or lower (almost no effect))
same,"Herbicidal effect grade, A: Echinochloa oryzacola Vasing.",[2]; [9],2 (Herbicidal ratio of 20% or higher and lower than 40%)
same,"I: Avena fatua, herbicidal effect grade",Avena fatua; 320 g/ha,5 (Herbicidal ratio of 90% or more (almost completely withered))
same,H (Echinochloa crus-galli var. crus-galli) herbicidal effect grade,[3]; [9],5 (Herbicidal ratio of 90% or more (almost completely withered))
same,"Herbicidal effect grade, F: Digitaria ciliaris",Digitaria ciliaris; [9],5 (Herbicidal ratio of 90% or more (almost completely withered))
same,"Herbicidal effect grade, K: Lolium multiflorum Lam.",Lolium multiflorum Lam.; [9],5 (Herbicidal ratio of 90% or more (almost completely withered))
same,"Effect on crop grade, f: beet",beet; [9],0 (Herbicidal ratio of 5% or lower (almost no effect))
same,"P: Stellaria media, herbicidal effect grade",Stellaria media; 320 g/ha,0 (Herbicidal ratio of 5% or lower (almost no effect))
same,"Herbicidal effect grade, M: Abutilon theophrasti",Abutilon theophrasti [4]; [9],0 (Herbicidal ratio of 5% or lower (almost no effect))
same,"Herbicidal effect grade, G: Setaria viridis",Setaria viridis; [9],1 (Herbicidal ratio of 5% or higher and lower than 20%)
same,"L: Apera spica-venti, herbicidal effect grade",Apera spica-venti [6]; 320 g/ha,5 (Herbicidal ratio of 90% or more (almost completely withered))
same,"Effect on crop grade, d: soybean",soybean; [9],0 (Herbicidal ratio of 5% or lower (almost no effect))
same,"R: Veronica persica, herbicidal effect grade",Veronica persica; 320 g/ha,0 (Herbicidal ratio of 5% or lower (almost no effect))
same,"O: Chenopodium album, herbicidal effect grade",Chenopodium album [7]; 320 g/ha,0 (Herbicidal ratio of 5% or lower (almost no effect))
same,"Herbicidal effect grade, C: Monochoria vaginalis",Monochoria vaginalis; [9],0 (Herbicidal ratio of 5% or lower (almost no effect))
same,"Herbicidal effect grade, L: Apera spica-venti",Apera spica-venti [8]; [9],1 (Herbicidal ratio of 5% or higher and lower than 20%)
same,"Herbicidal effect grade, Q: Galium spurium",Galium spurium; [9],0 (Herbicidal ratio of 5% or lower (almost no effect))
same,"b: directly sowed rice plant, effect on crop grade",rice plant; 320 g/ha,5 (Herbicidal ratio of 90% or more (almost completely withered))
